Assay: In vitro elution testing of drug-loaded collars (light absorption of solution at 242 nm)
Type: physicochemical
Details: dried collar loaded from aqueous solution, then immersed in water
Description: FIG. 3 is a graph of radiation absorption (at 242 nm) versus time to measure the elution of dexamethasone acetate.
* denotes the use of an approximation during the calculation of values. […] The soaked collars were then dried for three hours and the delivered for elution testing. Elution testing was done by in vitro testing of the light absorption of a solution into which the collars were placed. The absorption at 242 nm was measured (a wavelength at which dexamethasone acetate strongly absorbs) and the release of the drug noted by increasing levels of absorbance, as shown in FIG. 3. […] Pore size would be estimated by taking the largest linear dimensions within each of the open areas and using that linear value as the largest dimension for that pore.
The rate of release from the collars is intended to be highly tailored to the specific ultimate use intended for the catheter or lead. The leads which may be used include traditional leads such as cardiac leads, but may also include other leads such as leads to organs that produce enzymes and hormones (as in the electrically stimulated treatment for Parkinsonism to accelerate the natural production of L-dopa), in stimulating breathing (in the prevention of SIDS or control of sleep apnea), neurological leads, hearing related leads, tinitus suppression leads, and the like. […]

## CC(=O)OCC(=O)[C@@]1(O)[C@H](C)C[C@H]2[C@@H]3CCC4=CC(=O)C=C[C@]4(C)[C@@]3(F)[C@@H](O)C[C@@]21C [dextramethasone acetate, dexamethasone acetate]
  removal of drug from the pores on immersion: removed from the pores over time

Source: patent publication US6361780B1, “Microporous drug delivery system” (Cardiac Pacemakers, Inc., priority 1998, dated 2002)
